In patent US20100160454A1, “ANTIMICROBIAL AGENTS, COMPOSITIONS AND PRODUCTS CONTAINING THE SAME, AND METHODS OF USING THE COMPOSITIONS AND PRODUCTS” (Eastman Chemical Company, priority 2008, published 2010):

Tests used:
Assay in all cases: Microbiological challenge testing in BPW broth, graded subculture counts
Assay type in all cases: cell-based
[1] = system: Candida albicans Wild type; details: C. albicans
Method: The microorganisms in the table below were used in challenge tests. They were either ATCC (American Type Culture Collection) or “wild type” as indicated. Wild type organisms were problematic organisms previously isolated from chemical products.
All of the microorganisms were grown in Tryptose Soy Broth (TSB), DIFCO™ available from Becton, Dickinson and Company, containing 1% dextrose. Candida albicans and Aspergillus niger, were incubated at 22° C.+/−2° C. for at least 96 hours. All bacteria were incubated at 35° C.+/−2° C. in a humidified incubator for at least 96 hours.
Candida albicans and Aspergillus niger were also grown on Sabouraud Dextrose Agar (SABD) at 22° C. for 7 to 14 days or until full sporulation was achieved.
The following procedure was followed to determine the amount of each challenge material (inoculum broth) needed to produce a 10^8 CFU/mL challenge, which is equivalent to a final test-sample microbial concentration of 10^5 to 10^6 CFU/mL (CFU=colony forming units).
Using a sterile pipette, 1 mL of the growth from each TSB culture was transferred into tubes of 9 mL buffered water (pH 7.2 phosphate buffer) and mixed thoroughly. This was repeated to make serial 1:10 dilutions. Then, 0.1 mL of each sample and dilution was inoculated onto agar plates to produce the equivalent of a further 1:10 dilution. (C. albicans and A. niger were inoculated onto SABD and bacteria were inoculated onto Plate Count Agar (PCA), DIFCO™ available from Becton, Dickinson and Company.) (The normal volume plated for most samples was 0.1 mL. Some samples that could be very low in micro-organisms (high dilutions) were plated using 0.5 mL of inoculum, in order to produce reproducible counts.) The samples were distributed on the plates using the spread-plate technique. The spread-plate technique is carried out by spreading the sample over the entire plate surface using a sterile spreading rod while rotating the plate with a rotary auto-plater. After the inoculum was absorbed completely by the agar, each plate was inverted and incubated (fungi at 22° C.+/−2° C. and bacteria at 35° C.+/−2° C.).
After incubation for at least 48 hours, colonies that had developed on the agar plates were counted (CFU) and recorded with the corresponding dilution. If counting had to be delayed temporarily, plates were refrigerated, preferably no more than 24 hours, until they could be counted. The number of CFU/mL was determined by multiplying the plate count by the dilution factor of the plate counted.
Turbidity in Nepholemetric Turbidity Units (NTU) was measured for each serial dilution using the HF-Micro 100 Model Turbidimeter. For each microorganism, the plate counts were compared to the turbidity readings.
On the day of challenge, the Candida albicans inoculum broth was poured through nonabsorbent sterile gauze and centrifuged. The […] was then diluted with buffered water (pH 7.2 phosphate buffer) until the desired turbidity was reached. Using a hemocytometer, a determination was made whether the challenge contained the desired concentration. Dilutions were made through 1.0×10^8 and three SABD spread plates were inoculated with 0.1 mL of each dilution. The plates were incubated for at least 48 hours and challenge counts were confirmed.
Control substrates (“broth alone”) were prepared for each microorganism separately in triplicate by adding 13.5 mL of Buffered Peptone Water broth (BPW) containing 1% dextrose to each 20-mL glass tube, then adding 1.5 mL challenge material to produce a final concentration at time zero of 10^5 to 10^6 CFU/mL and a total volume of 15 mL.

[2] = system: Escherichia coli ATCC 25922; details: E. Coli
In short: (§1)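 Bacteria were grown in TSB with 1% dextrose at 35 °C ± 2 °C for at least 96 h, then added to BPW containing 1% dextrose plus test material to give 10^5 to 10^6 CFU/mL at time zero. Broth-alone controls were run in triplicate. Counts were made by spread plating on PCA.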

[3] = system: Streptococcus mutans ATCC 35668
In short: as §1

OCC1CCCC(CO)C1 (stereo not drawn) [1,3-CHDM, 1,3-cyclohexanedimethanol]
Grade ([1]; 0.5% (wt/vol), 3 day): 4 (1000 to 10,000 colonies countable (thus 10,000 CFU/mL to 100,000 CFU/mL))
Grade ([1]; 0.5% (wt/vol), 14 day): 4 (1000 to 10,000 colonies countable (thus 10,000 CFU/mL to 100,000 CFU/mL))
Grade ([1]; 0.5% (wt/vol), 30 day): 4 (1000 to 10,000 colonies countable (thus 10,000 CFU/mL to 100,000 CFU/mL))
Grade ([1]; 1.25% (wt/vol), 3 day): 4 (1000 to 10,000 colonies countable (thus 10,000 CFU/mL to 100,000 CFU/mL))
Grade ([1]; 1.25% (wt/vol), 14 day): 4 (1000 to 10,000 colonies countable (thus 10,000 CFU/mL to 100,000 CFU/mL))
Grade ([1]; 1.25% (wt/vol), 30 day): 4 (1000 to 10,000 colonies countable (thus 10,000 CFU/mL to 100,000 CFU/mL))
Grade ([1]; 2.5% (wt/vol), 3 day): 4 (1000 to 10,000 colonies countable (thus 10,000 CFU/mL to 100,000 CFU/mL))
Grade ([1]; 2.5% (wt/vol), 14 day): 4 (1000 to 10,000 colonies countable (thus 10,000 CFU/mL to 100,000 CFU/mL))
Grade ([1]; 2.5% (wt/vol), 30 day): 4 (1000 to 10,000 colonies countable (thus 10,000 CFU/mL to 100,000 CFU/mL))
Grade ([1]; 5.0% (wt/vol), 3 day): 0
Grade ([1]; 5.0% (wt/vol), 14 day): 2 (52 to 100 colonies counted (thus 520 to 1000 CFU/mL))
Grade ([1]; 5.0% (wt/vol), 30 day): 3 (100 to 1000 colonies (thus 1000 to 10,000 CFU/mL))
Grade ([2]; 0.5% (wt/vol), 3 day): 5 (More than 10,000 colonies estimated (thus more than 100,000 CFU/mL))
Grade ([2]; 0.5% (wt/vol), 14 day): 5 (More than 10,000 colonies estimated (thus more than 100,000 CFU/mL))
Grade ([2]; 0.5% (wt/vol), 30 day): 5 (More than 10,000 colonies estimated (thus more than 100,000 CFU/mL))
Grade ([2]; 1.25% (wt/vol), 3 day): 5 (More than 10,000 colonies estimated (thus more than 100,000 CFU/mL))
Grade ([2]; 1.25% (wt/vol), 14 day): 4 (1000 to 10,000 colonies countable (thus 10,000 CFU/mL to 100,000 CFU/mL))
Grade ([2]; 1.25% (wt/vol), 30 day): 4 (1000 to 10,000 colonies countable (thus 10,000 CFU/mL to 100,000 CFU/mL))
Grade ([2]; 2.5% (wt/vol), 3 day): 5 (More than 10,000 colonies estimated (thus more than 100,000 CFU/mL))
Grade ([2]; 2.5% (wt/vol), 14 day): 4 (1000 to 10,000 colonies countable (thus 10,000 CFU/mL to 100,000 CFU/mL))
Grade ([2]; 2.5% (wt/vol), 30 day): 4 (1000 to 10,000 colonies countable (thus 10,000 CFU/mL to 100,000 CFU/mL))
Grade ([2]; 5.0% (wt/vol), 3 day): 4 (1000 to 10,000 colonies countable (thus 10,000 CFU/mL to 100,000 CFU/mL))
Grade ([2]; 5.0% (wt/vol), 14 day): 3 (100 to 1000 colonies (thus 1000 to 10,000 CFU/mL))
Grade ([2]; 5.0% (wt/vol), 30 day): 4 (1000 to 10,000 colonies countable (thus 10,000 CFU/mL to 100,000 CFU/mL))
S. mutans growth grade, 3 day ([3]; 0.5% weight/volume): 5 (More than 10,000 colonies estimated (thus more than 100,000 CFU/mL))
S. mutans growth grade, 13 day ([3]; 0.5% weight/volume): 4 (1000 to 10,000 colonies countable (thus 10,000 CFU/mL to 100,000 CFU/mL))
S. mutans growth grade, 30 day ([3]; 0.5% weight/volume): 4 (1000 to 10,000 colonies countable (thus 10,000 CFU/mL to 100,000 CFU/mL))
S. mutans growth grade, 3 day ([3]; 1.25% weight/volume): 4 (1000 to 10,000 colonies countable (thus 10,000 CFU/mL to 100,000 CFU/mL))
S. mutans growth grade, 13 day ([3]; 1.25% weight/volume): 4 (1000 to 10,000 colonies countable (thus 10,000 CFU/mL to 100,000 CFU/mL))
S. mutans growth grade, 30 day ([3]; 1.25% weight/volume): 4 (1000 to 10,000 colonies countable (thus 10,000 CFU/mL to 100,000 CFU/mL))
S. mutans growth grade, 3 day ([3]; 2.5% weight/volume): 4 (1000 to 10,000 colonies countable (thus 10,000 CFU/mL to 100,000 CFU/mL))
S. mutans growth grade, 13 day ([3]; 2.5% weight/volume): 4 (1000 to 10,000 colonies countable (thus 10,000 CFU/mL to 100,000 CFU/mL))
S. mutans growth grade, 30 day ([3]; 2.5% weight/volume): 4 (1000 to 10,000 colonies countable (thus 10,000 CFU/mL to 100,000 CFU/mL))
S. mutans growth grade, 3 day ([3]; 5.0% weight/volume): 2 (52 to 100 colonies counted (thus 520 to 1000 CFU/mL))
S. mutans growth grade, 13 day ([3]; 5.0% weight/volume): 0
S. mutans growth grade, 30 day ([3]; 5.0% weight/volume): 0
